Calls of active or inactive are those of the source. How the calls were made is not given here.
Legend:
[1] = M. tuberculosis growth inhibition with meropenem, dose response, H37Rv, set 2 (AID 504702);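 further: growth read by Alamar Blue after 7 days plus overnight incubation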; details: M. tuberculosis H37Rv with meropenem, growth inhibition
[2] = tested on: M. tuberculosis H37Rv with meropenem, growth inhibition; test: as above; details: for IC90: measured here: IC90 growth with meropenem

## O=C(Cc1ccccc1Cl)Nc1nc2ccccc2[nH]1
[1]; at 18.8 µM (top of the series)
  growth inhibition: -1.22% (inactive)
[2]
  IC50: 18.9 µM
  IC90: > 25 µM

## Cc1ccccc1OCC(=O)Nc1ccccc1-c1ccccc1
[1]; at 18.8 µM (top of the series)
  growth inhibition: 23.6% (inactive)
[2]
  IC50: 14.6 µM
  IC90: > 25 µM

## S=C(Nc1ccccc1)Nc1ccc(Cl)cn1
[1]; at 18.8 µM (top of the series)
  growth inhibition: 1.73% (inactive)
[2]
  IC50: 6.64 µM
  IC90: > 25 µM

## Cc1cc(C)c(OCC(=O)Nc2nc3ccccc3[nH]2)c(C)c1
[1]; at 18.8 µM (top of the series)
  growth inhibition: 5.17% (inactive)
[2]
  IC50: 5.55 µM
  IC90: > 25 µM

## O=C(Cc1csc(-c2ccccc2F)n1)Nc1nc2ccccc2[nH]1
[1]; at 25 µM (top of the series)
  growth inhibition: 1.69% (inactive)

## O=C(COc1cccc2ccccc12)Nc1nc2ccccc2s1
[1]; at 25 µM (top of the series)
  growth inhibition: -6.75% (inactive)

## COc1ccc2nc(NC(=O)COc3ccc(C)cc3)sc2c1
[1]; at 25 µM (top of the series)
  growth inhibition: -3.26% (inactive)

## Cc1cc2cc(O)ccc2[nH]1
[1]; at 25 µM (top of the series)
  growth inhibition: 1.86% (inactive)

## O=C(COc1ccc2c3c(c(=O)oc2c1)CCC3)Nc1nc2ccccc2[nH]1
[1]; at 25 µM (top of the series)
  growth inhibition: -4.95% (inactive)

## CCC(CC)c1nnc(NC(=O)c2ccc(N3CCCCC3)c([N+](=O)[O-])c2)s1
[1]; at 25 µM (top of the series)
  growth inhibition: 2.49% (inactive)

## Cc1ccc(OCC(=O)Nc2nnn(C)n2)c(C)c1
[1]; at 25 µM (top of the series)
  growth inhibition: -3.74% (inactive)

## Cc1ccc2sc(NC(=O)COc3ccccc3)nc2c1C
[1]; at 25 µM (top of the series)
  growth inhibition: 14.4% (inactive)

## COc1ccc2nc(NC(=O)C(C)Oc3ccccc3)sc2c1 (stereo unspecified)
[1]; at 25 µM (top of the series)
  growth inhibition: -2.23% (inactive)

## O=C(COc1ccccc1Cl)Nc1nc2ccccc2s1
[1]; at 25 µM (top of the series)
  growth inhibition: -4.37% (inactive)

## COc1ccc2[nH]c(C)cc2c1
[1]; at 25 µM (top of the series)
  growth inhibition: 0.56% (inactive)

## CC(C)Cn1c2c(c(O)c(C(=O)Nc3nccs3)c1=O)CCCC2
[1]; at 18.8 µM (top of the series)
  growth inhibition: 3.14% (inactive)
[1]; at 25 µM (top of the series)
  growth inhibition: -0.17% (inactive)

## N/C(=N\c1nc2ccccc2o1)NC(=O)c1ccccc1F
[1]; at 25 µM (top of the series)
  growth inhibition: -5.8% (inactive)

## COc1cccc(-c2ccc(-c3noc(-c4ccccc4F)n3)c(OC)n2)c1
[1]; at 18.8 µM (top of the series)
  growth inhibition: 5.58% (inactive)
[2]
  IC90: > 25 µM

## CCOc1ccc2nc(NC(=O)C(C)Oc3ccccc3F)sc2c1 (stereo unspecified)
[1]; at 25 µM (top of the series)
  growth inhibition: 2.03% (inactive)

## COC(=O)c1ccc2nc(NC(=O)COc3ccccc3)sc2c1
[1]; at 25 µM (top of the series)
  growth inhibition: 15.1% (inactive)

## Cc1ccc(OCC(=O)Nc2nc3c(Cl)cccc3s2)cc1
[1]; at 25 µM (top of the series)
  growth inhibition: -2.68% (inactive)

## COc1ccccc1C(=O)N/C(N)=N/c1nc2ccccc2o1
[1]; at 25 µM (top of the series)
  growth inhibition: 0.18% (inactive)

## c1ccc(-c2cc(N3CCOCC3)nc3ccccc23)cc1
[1]; at 25 µM (top of the series)
  growth inhibition: 6.06% (inactive)
[2]
  IC50: 10 µM
  IC90: > 18.8 µM

## Cc1ccc(OC(C)C(=O)Nc2ncccn2)c(C)c1 (stereo unspecified)
[1]; at 25 µM (top of the series)
  growth inhibition: 3.48% (inactive)

## Cc1cc2ccccc2n1-c1ccccc1
[1]; at 25 µM (top of the series)
  growth inhibition: -0.06% (inactive)

## Cc1ccccc1OCC(=O)Nc1nnn(C)n1
[1]; at 25 µM (top of the series)
  growth inhibition: 0.35% (inactive)

## N/C(=N\c1nc2ccccc2o1)NC(=O)C1CC1
[1]; at 25 µM (top of the series)
  growth inhibition: 9.34% (inactive)

## COC(=O)c1c(C)[nH]c2ccc(F)cc12
[1]; at 25 µM (top of the series)
  growth inhibition: -3.53% (inactive)

## CCOc1ccc2c(ccn2-c2ccccc2)c1
[1]; at 25 µM (top of the series)
  growth inhibition: -1.15% (inactive)
